Assay [1] deals with T1, interaction between glucokinase (GK) and glucokinase regulatory protein (GKRP) (Homo sapiens, UniProt Q14397).
T1 sequence (Q14397 1-625): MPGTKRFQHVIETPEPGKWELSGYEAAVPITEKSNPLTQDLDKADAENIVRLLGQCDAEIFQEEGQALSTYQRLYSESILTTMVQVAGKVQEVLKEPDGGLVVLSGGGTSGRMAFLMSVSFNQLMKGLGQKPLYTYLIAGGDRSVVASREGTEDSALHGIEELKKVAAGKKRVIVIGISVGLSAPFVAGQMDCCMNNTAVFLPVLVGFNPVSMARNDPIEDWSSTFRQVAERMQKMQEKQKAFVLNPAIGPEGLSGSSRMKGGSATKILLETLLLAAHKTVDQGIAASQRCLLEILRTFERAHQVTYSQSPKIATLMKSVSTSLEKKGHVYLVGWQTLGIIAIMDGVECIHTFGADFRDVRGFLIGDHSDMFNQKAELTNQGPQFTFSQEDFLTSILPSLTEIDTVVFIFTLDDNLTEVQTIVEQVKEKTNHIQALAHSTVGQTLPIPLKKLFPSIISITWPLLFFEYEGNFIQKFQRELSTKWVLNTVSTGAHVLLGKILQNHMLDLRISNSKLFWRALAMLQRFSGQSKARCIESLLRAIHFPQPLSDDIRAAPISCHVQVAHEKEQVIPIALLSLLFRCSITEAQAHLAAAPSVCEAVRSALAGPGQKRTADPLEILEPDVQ
The experiment in a line: biochemical. The class given is binding. In a few lines:
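Measures direct GK–GKRP binding in 20 mM Tris pH 7.5 containing 1 μM sorbitol-6-phosphate, 0.05% BSA and 1 mM DTT. Compound and avi-tagged GKRP sit 20 min at room temperature before GK-fluorescein addition (6 nM in the added buffer); read after 2 h dark incubation at room temperature.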

Assay [2] concerns the target T2, GKRP (Glucokinase Regulatory Protein) with human His-hepatic GK (Homo sapiens, UniProt Q14397).
T2 sequence (Q14397 1-625): T1 sequence (Q14397 1-625)
The experiment in a line: biochemical. In a few lines: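 Product formation, 13C-glucose-6-phosphate from 13C-glucose, was measured directly by LC MS/MS after acetonitrile quench. The GK reaction ran 30 min at room temperature in Tris pH 7.5 buffer with 4 mM MgCl2 and 6% DMSO. The 5× enzyme stock was 30 nM His-tagged human hepatic glucokinase.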

Where [3] appears, read: avi-tagged GKRP, GK-fluorescein, AlphaScreen beads, read-out: GK-GKRP IC50 (Binding).
[4] abbreviates: 13C-glucose-6-phosphate formation, 280 nM GKRP (10×), 30 nM GK (5×), read-out: GK-GKRP EC50 (LC MS/MS-2).

Read-outs that look alike come from different tables or passages of the source.

Usually IC50 stands for the concentration that gives 50% inhibition. For the compound `CC(O)(c1ccc(N2CCN(S(=O)(=O)c3cccs3)C[C@@H]2CN2[C@@H]3COC[C@H]2CC(O)C3)cc1)C(F)(F)F` (stereo partly drawn) [Example 107, 9-(((2S)-4-(2-thiophenylsulfonyl)-1-(4-(2,2,2-trifluoro-1-hydroxy-1-methylethyl)phenyl)-2-piperazinyl)methyl)-3-oxa-9-azabicyclo[3.3.1]nonan-7-ol (endo)], the IC50 in assay [1] (setting [3]) was 5 nM. For the same compound, the EC50 in assay [2] (setting [4]) came to 16 nM.

Consider `CC1(O)C[C@H]2COC[C@@H](C1)N2C[C@H]1CN(S(=O)(=O)c2cccs2)CCN1c1ccc(C(C)(O)C(F)(F)F)cc1` (stereo partly drawn) [Example 108, (1R,5S)-7-methyl-9-(((2S)-4-(2-thiophenylsulfonyl)-1-(4-(2,2,2-trifluoro-1-hydroxy-1-methylethyl)phenyl)-2-piperazinyl)methyl)-3-oxa-9-azabicyclo[3.3.1]nonan-7-ol (endo)], for which the IC50 in assay [1] (setting [3]) came to 27 nM. The EC50 in assay [2] (setting [4]) stood at 45 nM.

As to `COC1C[C@H]2COC[C@@H](C1)N2C[C@H]1CN(S(=O)(=O)c2cccs2)CCN1c1ccc(C(C)(O)C(F)(F)F)cc1` (stereo partly drawn) [Example 109, 1,1,1-trifluoro-2-(4-((2S)-2-(((1R,5S)-7-methoxy-3-oxa-9-azabicyclo[3.3.1]non-9-yl)methyl)-4-(2-thiophenylsulfonyl)-1-piperazinyl)phenyl)-2-propanol (endo)], in assay [1] (setting [3]), the half-inhibitory concentration (IC50) was 72 nM. The EC50 in assay [2] (setting [4]) is 81 nM.

In assay [1] (GK-GKRP IC50 (Binding)), `CC(O)(c1ccc(N2CCN(S(=O)(=O)c3cccs3)C[C@@H]2CN2CC3CCOC3C2)cc1)C(F)(F)F` (stereo partly drawn) [Example 122, 1,1,1-trifluoro-2-(4-((2S)-2-(cis-hexahydro-5H-furo[2,3-c]pyrrol-5-ylmethyl)-4-(2-thiophenylsulfonyl)-1-piperazinyl)phenyl)-2-propanol] showed an IC50 of 555 nM. Besides, the EC50 in assay [2] (GK-GKRP EC50 (LC MS/MS-2)) came out at 313 nM.

Regarding `CC(O)(c1ccc(N2CCN(S(=O)(=O)c3cccs3)C[C@@H]2CN2C[C@H]3COC[C@H]3C2)cc1)C(F)(F)F` (stereo partly drawn) [Example 123, 1,1,1-trifluoro-2-(4-((2S)-2-((3aR,6aS)-tetrahydro-1H-furo[3,4-c]pyrrol-5(3H)-ylmethyl)-4-(2-thiophenylsulfonyl)-1-piperazinyl)phenyl)-2-propanol], the half-inhibitory concentration (IC50) in assay [1] (GK-GKRP IC50 (Binding)) amounted to 671 nM. This compound also had an EC50 in assay [2] (GK-GKRP EC50 (LC MS/MS-2)) of 731 nM.

As for `Nc1ccc(S(=O)(=O)N2CCN(c3ccc(C(O)(C(F)(F)F)C(F)(F)F)cc3)[C@@H](CC3CCOCC3)C2)cn1` [Example 126, 2-(4-((2S)-4-((6-amino-3-pyridinyl)sulfonyl)-2-(tetrahydro-2H-pyran-4-ylmethyl)-1-piperazinyl)phenyl)-1,1,1,3,3,3-hexafluoro-2-propanol], in assay [1] (setting [3]), the IC50 was 22 nM. The EC50 in assay [2] (setting [4]) was 37 nM.

As to `C[C@H]1COCCN1C[C@H]1CN(S(=O)(=O)c2ccc(N)nc2)CCN1c1ncc(C(O)(C(F)(F)F)C(F)(F)F)cn1` [Example 128, 2-(2-((2S)-4-((6-amino-3-pyridinyl)sulfonyl)-2-(((3S)-3-methyl-4-morpholinyl)methyl)-1-piperazinyl)-5-pyrimidinyl)-1,1,1,3,3,3-hexafluoro-2-propanol], in assay [1] (setting [3]), the IC50 was determined as 27 nM. In addition, in assay [2] (setting [4]), the EC50 was determined as 34 nM.

Turning to `Nc1ccc(S(=O)(=O)N2CCN(c3ncc(C(O)(C(F)(F)F)C(F)(F)F)cn3)[C@@H](CC3CCOCC3)C2)cn1` [Example 130, 2-(2-((2S)-4-((6-amino-3-pyridinyl)sulfonyl)-2-(tetrahydro-2H-pyran-4-ylmethyl)-1-piperazinyl)-5-pyrimidinyl)-1,1,1,3,3,3-hexafluoro-2-propanol], the half-maximal inhibitory concentration (IC50) in assay [1] (setting [3]) came out at 62 nM. In addition, the EC50 in assay [2] (setting [4]) came out at 134 nM.

On to `Nc1ccc(S(=O)(=O)N2CCN(c3ncc(C(O)(C(F)(F)F)C(F)(F)F)cn3)[C@@H](CC3CCOCC3)C2)s1` [Example 133, 2-(2-((2S)-4-((5-amino-2-thiophenyl)sulfonyl)-2-(tetrahydro-2H-pyran-4-ylmethyl)-1-piperazinyl)-5-pyrimidinyl)-1,1,1,3,3,3-hexafluoro-2-propanol], for which the IC50 in assay [1] (setting [3]) stood at 47 nM. The same compound yielded an EC50 in assay [2] (GK-GKRP EC50 (LC MS/MS-2), 13C-glucose-6-phosphate formation, 280 nM GKRP (10×), 30 nM GK (5×)) of 59 nM.

Regarding `O=S(=O)(c1cccs1)N1CCN(c2ncc(C(O)(C(F)(F)F)C(F)(F)F)cn2)[C@@H](CC2CCOCC2)C1` [Example 134, 1,1,1,3,3,3-hexafluoro-2-(2-((2S)-2-(tetrahydro-2H-pyran-4-ylmethyl)-4-(2-thiophenylsulfonyl)-1-piperazinyl)-5-pyrimidinyl)-2-propanol], the IC50 in assay [1] (setting [3]) is 122 nM. Also, the EC50 in assay [2] (setting [4]) was found to be 79 nM.

In the case of `C[C@H]1CN(S(=O)(=O)c2nccs2)CCN1c1ncc(C(O)(C(F)(F)F)C(F)(F)F)cn1` [Example 146, 1,1,1,3,3,3-hexafluoro-2-(2-((2S)-2-methyl-4-(1,3-thiazol-2-ylsulfonyl)-1-piperazinyl)-5-pyrimidinyl)-2-propanol], the IC50 in assay [1] (setting [3]) came out at 630 nM. For the same compound, the EC50 in assay [2] (setting [4]) was 867 nM.

Take `C[C@H]1CN(S(=O)(=O)c2ccc(N)s2)CCN1c1ccc(C(O)(C(F)(F)F)C(F)(F)F)cc1` [Example 149, 2-(4-((2S)-4-((5-amino-2-thiophenyl)sulfonyl)-2-methyl-1-piperazinyl)phenyl)-1,1,1,3,3,3-hexafluoro-2-propanol]: in assay [1] (setting [3]), the IC50 stood at 450 nM. Further, the EC50 in assay [2] (setting [4]) was 109 nM.

In the case of `O=S(=O)(c1cccs1)N1CCN(c2ccc(C(O)(C(F)(F)F)C(F)(F)F)cc2C#CCCO)CC1` [Example 150, 4-(2-(4-(2-thiophenylsulfonyl)-1-piperazinyl)-5-(2,2,2-trifluoro-1-hydroxy-1-(trifluoromethyl)ethyl)phenyl)-3-butyn-1-ol], the IC50 in assay [1] (setting [3]) was 656 nM. The EC50 in assay [2] (setting [4]) was determined as 895 nM.

On to `O=S(=O)(c1cccs1)N1CCN(c2ccc(C(O)(C(F)(F)F)C(F)(F)F)cc2C#CCO)CC1` [Example 152, 3-(2-(4-(2-thiophenylsulfonyl)-1-piperazinyl)-5-(2,2,2-trifluoro-1-hydroxy-1-(trifluoromethyl)ethyl)phenyl)-2-propyn-1-ol], for which the 50% inhibitory concentration (IC50) in assay [1] (setting [3]) is 712 nM. The EC50 in assay [2] (setting [4]) was 557 nM.

Turning to `COCC#Cc1cc(C(O)(C(F)(F)F)C(F)(F)F)ccc1N1CCN(S(=O)(=O)c2cccs2)CC1` [Example 153, 1,1,1,3,3,3-hexafluoro-2-(3-(3-methoxyprop-1-YNYL)-4-(4-(thiophen-2-ylsulfonyl)piperazin-1-yl)phenyl)propan-2-ol], the IC50 in assay [1] (setting [3]) was found to be 363 nM. The EC50 in assay [2] (setting [4]) amounted to 675 nM.

Turning to `CS(=O)(=O)NCC#Cc1cc(C(O)(C(F)(F)F)C(F)(F)F)ccc1N1CCN(S(=O)(=O)c2cccs2)CC1` [Example 160, N-(3-(2-(4-(2-thiophenylsulfonyl)-1-piperazinyl)-5-(2,2,2-trifluoro-1-hydroxy-1-(trifluoromethyl)ethyl)phenyl)-2-propyn-1-yl)methanesulfonamide], the IC50 in assay [1] (setting [3]) turned out to be 783 nM. Also, the EC50 in assay [2] (setting [4]) was 412 nM.

Turning to `C[C@H]1CN(S(=O)(=O)c2ccccc2N)CCN1c1ncc(C(O)(C(F)(F)F)C(F)(F)F)cn1` [Example 167, (S)-2-(2-(4-(2-aminophenylsulfonyl)-2-methylpiperazin-1-yl)pyrimidin-5-yl)-1,1,1,3,3,3-hexafluoro-2-propanol], in assay [1] (setting [3]), the IC50 was 508 nM. In addition, the EC50 in assay [2] (setting [4]) was determined as 516 nM.

On to `C[C@H]1CN(S(=O)(=O)c2ccccc2N)CCN1c1ccc(C(O)(C(F)(F)F)C(F)(F)F)cc1` [Example 168, 2-(4-((2S)-4-((2-aminophenyl)sulfonyl)-2-methyl-1-piperazinyl)phenyl)-1,1,1,3,3,3-hexafluoro-2-propanol], for which the IC50 in assay [1] (setting [3]) was determined as 660 nM. In addition, the EC50 in assay [2] (setting [4]) is 533 nM.

The values above are taken from patent publication US8431563B2 (priority 2010, dated 2013).
